# Data as given in the supplement of paper PMC11451515.
# Tested on: NOMO1
# Experiment: cell viability relative to DMSO control; higher = less cytotoxic
# Details: 48 h
# Method in brief: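 NOMO1 or SEM (500 cells/well) or P12-Ichikawa (1000 cells/well) leukemia cells were adapted for at least four passages in each medium. They were seeded in 1536-well plates (5 μl) and pin-dosed with library compounds in DMSO over an 11-point threefold series, 47 μM to 0.79 nM. CellTiter-Glo One luminescence was read after 48 h at 37°C. Viability is the per-plate percentage relative to DMSO wells, with cell-free wells as background.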
# [1] = RPMI 5 mM glucose + 10% FBS, 0.000781 µM
# [2] = RPMI 5 mM glucose + 10% FBS, 0.00234 µM
# [3] = RPMI 5 mM glucose + 10% FBS, 0.00702 µM
# [4] = RPMI 5 mM glucose + 10% FBS, 0.0211 µM
# [5] = RPMI 5 mM glucose + 10% FBS, 0.0632 µM
# [6] = RPMI 5 mM glucose + 10% FBS, 0.19 µM
# [7] = RPMI 5 mM glucose + 10% FBS, 0.569 µM
# [8] = RPMI 5 mM glucose + 10% FBS, 1.71 µM
# [9] = RPMI 5 mM glucose + 10% FBS, 5.12 µM
# [10] = RPMI 5 mM glucose + 10% FBS, 15.4 µM
# [11] = RPMI 5 mM glucose + 10% FBS, 46.1 µM
# [12] = RPMI 5 mM glucose + 10% dialyzed FBS, 0.000781 µM
# [13] = RPMI 5 mM glucose + 10% dialyzed FBS, 0.00234 µM
# [14] = RPMI 5 mM glucose + 10% dialyzed FBS, 0.00702 µM
# [15] = RPMI 5 mM glucose + 10% dialyzed FBS, 0.0211 µM
# [16] = RPMI 5 mM glucose + 10% dialyzed FBS, 0.0632 µM
# [17] = RPMI 5 mM glucose + 10% dialyzed FBS, 0.19 µM
# [18] = RPMI 5 mM glucose + 10% dialyzed FBS, 0.569 µM
# [19] = RPMI 5 mM glucose + 10% dialyzed FBS, 1.71 µM
# [20] = RPMI 5 mM glucose + 10% dialyzed FBS, 5.12 µM
# [21] = RPMI 5 mM glucose + 10% dialyzed FBS, 15.4 µM
# [22] = RPMI 5 mM glucose + 10% dialyzed FBS, 46.1 µM
# [23] = HPLM + 10% dialyzed FBS, 0.000781 µM
# [24] = HPLM + 10% dialyzed FBS, 0.00234 µM
# [25] = HPLM + 10% dialyzed FBS, 0.00702 µM
# [26] = HPLM + 10% dialyzed FBS, 0.0211 µM
# [27] = HPLM + 10% dialyzed FBS, 0.0632 µM
# [28] = HPLM + 10% dialyzed FBS, 0.19 µM
# [29] = HPLM + 10% dialyzed FBS, 0.569 µM
# [30] = HPLM + 10% dialyzed FBS, 1.71 µM
# [31] = HPLM + 10% dialyzed FBS, 5.12 µM
# [32] = HPLM + 10% dialyzed FBS, 15.4 µM
# [33] = HPLM + 10% dialyzed FBS, 46.1 µM
Compound,cell viability [1] [%],cell viability [2] [%],cell viability [3] [%],cell viability [4] [%],cell viability [5] [%],cell viability [6] [%],cell viability [7] [%],cell viability [8] [%],cell viability [9] [%],cell viability [10] [%],cell viability [11] [%],cell viability [12] [%],cell viability [13] [%],cell viability [14] [%],cell viability [15] [%],cell viability [16] [%],cell viability [17] [%],cell viability [18] [%],cell viability [19] [%],cell viability [20] [%],cell viability [21] [%],cell viability [22] [%],cell viability [23] [%],cell viability [24] [%],cell viability [25] [%],cell viability [26] [%],cell viability [27] [%],cell viability [28] [%],cell viability [29] [%],cell viability [30] [%],cell viability [31] [%],cell viability [32] [%],cell viability [33] [%]
COc1cc(O)c2c(c1)C(=O)c1cc(C)cc(O)c1C2=O,107,119,111,115,102,113,101,110,105,92.3,31.2,115,114,110,110,120,118,109,119,120,85.4,24.3,,,,,,,,,,,
CC(C)(O)/C=C\C(=O)[C@](C)(O)[C@H]1[C@H](O)C[C@]2(C)[C@@H]3CC=C4[C@@H](C=C(O)C(=O)C4(C)C)[C@]3(C)C(=O)C[C@@]12C,106,102,95.5,122,89.2,63.4,30.2,18.8,16.1,9.22,14.5,101,110,108,110,99.8,58.2,22.1,16,18.7,9.49,12.2,96.2,115,126,116,111,74.7,18.8,17.3,14.5,7.22,11.9
CO/N=C(\C(=O)N[C@@H]1C(=O)N2C(C(=O)OCOC(=O)C(C)(C)C)=C(/C=C\c3scnc3C)CS[C@H]12)c1csc(N)n1,81,106,92.8,98.9,104,104,99.4,92.5,95,84.6,58.2,72.8,83.9,88,80.9,91.1,83.9,96.2,99.1,88,70,48.6,81.6,111,103,93.3,102,87.7,109,102,106,81.7,42.9
C[C@]12CC[C@H]3[C@@H](CCC/4=C/C(=O)CC[C@]34C)[C@@H]1CC[C@@H]2OC(=O)CCC5CCCC5,86.5,107,119,109,101,108,114,113,114,105,109,94.6,105,116,110,111,116,130,107,116,111,109,90.8,100,103,113,96.1,113,118,104,111,114,110
C[C@H]1COC/2=C1/C(=O)C(=O)C3=C4CCCC(C)(C)C4=CC=C23,,,,,,,,,,,,123,129,120,136,135,129,148,156,141,134,151,114,131,121,116,154,146,137,163,158,132,134
C[C@@]1(C(=O)Nc2ccc(F)nc2)CCCN1c1nc(Nc2cc(C3CC3)[nH]n2)c2cccn2n1,104,108,120,110,108,93.3,112,86,62.9,56.8,68.5,96.6,108,105,102,97.9,85.4,80,86.2,51.6,55.2,60,83.2,108,108,89.9,90.7,71.2,77.4,67.5,44.9,46.3,62
COc1cc(/C=C/C(=O)O)ccc1O,84.9,112,87.8,93.6,95.2,101,92.2,95.1,107,96.6,104,84.3,91,93.9,93.1,83.7,96.3,95.7,86.9,89.9,92.5,102,76.1,90.7,91.8,100,107,100,103,98.8,82.6,108,101
O.O.CCN1CCN(C(=O)N[C@H](C(=O)N[C@H]2[C@@H]3SC\C(=C(/N3C2=O)C(O)=O)CSC4=NN=N[N]4C)C5=CC=C(O)C=C5)C(=O)C1=O,81.4,93.8,88.5,19.5,95.2,100,111,109,101,111,113,77.5,92.9,93.5,32,100,96.1,100,101,92.4,102,107,77.3,86.9,106,29.4,106,98.8,110,104,101,89.8,115
